This note sets out measurements from patent US20230044787A1, “TRICYCLE DIHYDROIMIDAZOPYRIMIDONE DERIVATIVE, PREPARATION METHOD THEREOF, PHARMACEUTICAL COMPOSITION AND USE THEREOF” (priority 2019, published 2023).

For one experiment, the target named is T1, Lp-PLA2 (Homo sapiens, UniProt Q13093).
T1 construct: aliquoted and thawed 40 μL of pooled human plasma was previously added; from tissue; host or cells: pooled human plasma
T1 sequence (Q13093 22-441): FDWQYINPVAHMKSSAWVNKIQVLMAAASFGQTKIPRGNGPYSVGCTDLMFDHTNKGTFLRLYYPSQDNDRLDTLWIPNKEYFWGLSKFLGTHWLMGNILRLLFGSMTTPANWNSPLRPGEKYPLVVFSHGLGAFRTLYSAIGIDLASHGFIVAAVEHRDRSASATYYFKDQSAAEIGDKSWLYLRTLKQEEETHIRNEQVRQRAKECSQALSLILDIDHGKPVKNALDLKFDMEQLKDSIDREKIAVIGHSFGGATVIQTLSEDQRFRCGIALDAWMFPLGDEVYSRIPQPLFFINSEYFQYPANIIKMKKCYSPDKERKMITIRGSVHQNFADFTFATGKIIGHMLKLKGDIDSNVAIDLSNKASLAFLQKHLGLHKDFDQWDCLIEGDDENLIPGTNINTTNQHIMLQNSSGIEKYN
The experiment is described as follows: Lipoprotein-associated phospholipase A2 (Lp-PLA2) human plasma assay (Thio-PAF assay). The experiment is classed as biochemical. As to conditions: Comparison of activity data (I); pooled human plasma, 2-thio-PAF substrate, 30-min pre-incubation. As to the method: Lipoprotein-Associated Phospholipase A2 (Lp-PLA2) Human Plasma Assay
The amount of sulfhydryl groups is continuously determined by the reaction with CPM (7-diethylamino-3-(4′-maleimidophenyl)-4-methylcoumarin), and the CPM is a maleimide of which fluorescence increases after Michael addition of sulfhydryl group. This assay can detect Lp-PLA2 activity in human plasma, as determined by specific inhibition of Lp-PLA2 inhibitors.
Thio-PAF assay was performed as quenched 75 μL assay. Compound source plate was prepared for each compound by preparing 1:3 (by volume) serial dilutions in pure DMSO in a 96-well microplate. The compound on the source plate was diluted 20-fold by transferring 3 μL of the compound from the compound source plate into a 96-well microplate pre-added with 57 μL of assay buffer by Rainin multichannel pipette. The assay buffer described above consisted of 50 mM HEPES, pH 7.4, 150 mM NaCl, 1 mM CHAPS. 1 μL of the 20-fold diluted compound was transferred by Rainin multichannel pipette into a 96-well Greiner 655076 (black) microplate to which aliquoted and thawed 40 μL of pooled human plasma was previously added. The plate was shaken for 20 seconds on a microplate shaker to mix well. After a 30-min pre-incubation at room temperature, 10 μL of substrate solution was added to the 96-well Greiner 655076 (black) microplate by Rainin multichannel pipette, in which the substrate solution contained 2.5 mM 2-thio-PAF [from ethanol stock], 32 μM CPM [from DMSO stock], and 3.2 mM NEM (N-ethylmaleimide) [freshly prepared in DMSO per experiment] in assay buffer consisting of 50 mM HEPES, pH 7.4; 150 mM NaCl; 1 mM CHAPS. After 2 min, the reaction was quenched with […] of 5% trifluoroacetic acid (TFA) in water. The plate was centrifuged at 2000 rpm for 1 minute. The plate was read at ex:380/em:485 using a Biotek Synergy H1 (H1MF) microplate reader. IC50 data, curves and QC analysis were performed using GraphPad Prism 6.0 and Excel.
`O=c1nc(OCc2cc(F)c(F)c(F)c2)cc2n1C[C@@H]1COCCN21` [Example 123 in WO2016011930A1, reference compound]: the IC50 – broadly, the concentration that inhibits the measured activity by half – is 75.3 nM.

The same experiment, now with this note: Lp-PLA2 human plasma assay (Thio-PAF), pooled human plasma, 30-min pre-incubation at room temperature.
As to `N#Cc1cc(CCOc2cc3n(c(=O)n2)C[C@]24CO[C@H](CN32)C4)ccc1Oc1ccnc(C(F)(F)F)c1` [Example 101, 5-(2-(((3S,11aR)-9-oxo-3,4-dihydro-1H,9H,11H-3,11a-methanopyrimido[6′-,1′:2,3]imidazo[5,1-c][1,4]oxazin-7-yl)oxy)ethyl)-2-((2-(trifluoromethyl)pyridin-4-yl)oxy)benzonitrile], the 50% inhibitory concentration (IC50) is 15.1 nM.

Turning to `Cc1cc(Oc2ccc(COc3cc4n(c(=O)n3)CC35CCC(CC3)N45)cc2F)ccn1` [Example 120, 3-((3-fluoro-4-((2-methyl-pyridin-4-yl)oxy)benzyl)oxy)-7,8-dihydro-1H,6H,9H-6,8a-ethanopyrrolo[1′,2′:3,4] imidazo[1,2-c]pyrimidin-1-one], the IC50 worked out at 8.7 nM.

Take `O=c1nc(OCc2ccc(Oc3ccnc(C(F)(F)F)c3)c(F)c2)cc2n1CC13CC(CCN21)C3` [Example 165, 3-((3-fluoro-4-((2-(trifluoromethyl)pyridin-4-yl)oxy)benzyl)oxy)-6,7,8,9-tetrahydro-1H,10H-8,9a-methano-pyrido[1′,2′:3,4] imidazo[1,2-c]pyrimidin-1-one]: the IC50 is 3.1 nM.

`CN1C(=O)[C@]23C[C@H]1CN2c1cc(OCc2cc(F)c(Oc4cnn(C)c4)c(F)c2)nc(=O)n1C3` [Example 167, (3S,11aR)-7-((3,5-difluoro-4-((1-methyl-1H-pyrazol-4-yl)oxy)benzyl)oxy)-2-methyl-3,4-dihydro-9H,11H-3,11a-methanopyrazino[1′,2′:3,4] imidazo[1,2-c]pyrimidine-1,9(2H)-dione]: the 50% inhibitory concentration (IC50) is 19.4 nM.

As for `N#Cc1cc(Oc2ccc(COc3nc(=O)n4c(c3F)N3C[C@@H]5C[C@]3(CO5)C4)cc2F)cc(C(F)(F)F)c1` [Example 90], the IC50 came out at 4.8 nM.

In the case of `COc1c(OCc2ccc(Oc3ccnc(C(F)F)c3)c(F)c2)nc(=O)n2c1N1CC3CC1(C3)C2` [Example 140, 3-((4-((2-(difluoromethyl)pyridin-4-yl)oxy)-3-fluorobenzyl)oxy)-4-methoxy-7,8-dihydro-1H,6H,9H-7,8a-methanopyrrolo[1′,2′:3,4] imidazo[1,2-c]pyrimidin-1-one], the IC50 was found to be 3.9 nM.

Turning to `CC12CCCN1c1cc(OCc3cc(F)c(Oc4cnc(C(F)(F)F)nc4)c(F)c3)nc(=O)n1C2` (stereo not shown) [Example 56, 3-((3,5-difluoro-4-((2-(trifluoromethyl)pyrimidin-5-yl)oxy)benzyl)oxy)-8a-methyl-7,8,8a,9-tetrahydro-1H,6H-pyrrolo[1′,2′:3,4]imidazo [1,2-c]pyrimidin-1-one], the IC50 was 7.7 nM.

For `O=c1nc(OCc2cc(F)c(Oc3ccnc(C(F)(F)F)c3)c(F)c2)cc2n1C[C@]13CC[C@H](CN21)C3` [Example 123], the IC50 is 4.4 nM.

`[2H]C1([2H])n2c(cc(OCc3cc(F)c(Oc4ccnc(C(F)(F)F)c4)c(F)c3)nc2=O)N2C[C@@H]3C[C@@]21CO3` [Example 93]: the IC50 turned out to be 3.7 nM.

For `N#Cc1cc(COc2cc3n(c(=O)n2)CC24CCC(CC2)N34)ccc1Oc1ccnc(C(F)(F)F)c1` [Example 51], the half-maximal inhibitory concentration (IC50) turned out to be 3.3 nM.

As to `CC12COCCN1c1cc(OCc3ccc(Oc4cccc(C(F)(F)F)c4)c(C#N)c3)nc(=O)n1C2` (stereo not shown) [Example 85], the 50% inhibitory concentration (IC50) came out at 6.7 nM.

With `CC12CCCN1c1cc(OCc3cc(F)c(Oc4ccnc(OC(F)(F)F)c4)c(F)c3)nc(=O)n1C2` (stereo not shown) [Example 55, 3-((3,5-difluoro-4-((2-(trifluoromethoxy)pyridin-4-yl)oxy)benzyl)oxy)-8a-methyl-7,8,8a,9-tetrahydro-1H,6H-pyrrolo[1′,2′:3,4]imidazo [1,2-c]pyrimidin-1-one], the 50% inhibitory concentration (IC50) was determined as 6.5 nM.

In the case of `O=c1nc(OCc2ccc(Oc3ccc(C(F)(F)F)nc3)c(F)c2)cc2n1CC13CC(CN21)C3` [Example 117, 3-((3-fluoro-4-((6-(trifluoromethyl)pyridin-3-yl)oxy)benzyl)oxy)-7,8-dihydro-1H,6H,9H-7,8a-methanopyrrolo[1′,2′:3,4] imidazo[1,2-c]pyrimidin-1-one], the half-maximal inhibitory concentration (IC50) turned out to be 9.1 nM.

For the compound `O=c1nc(OCc2ccc(Oc3ccnc(C(F)(F)F)c3)cc2F)cc2n1CC13CC(CN21)C3` [Example 105, 3-((2-fluoro-4-((2-(trifluoromethyl)pyridin-4-yl)oxy)benzyl)oxy)-7,8-dihydro-1H,6H,9H-7,8a-methanopyrrolo[1′,2′:3,4] imidazo[1,2-c]pyrimidin-1-one], the 50% inhibitory concentration (IC50) worked out at 10.8 nM.

Consider `CCC12CCCCN1c1cc(OCc3cc(F)c(Oc4ccnc(C(F)(F)F)c4)c(F)c3)nc(=O)n1C2` (stereo not shown) [Example 75, 3-((3,5-difluoro-4-((2-(trifluoromethyl)pyridin-4-yl)oxy)benzyl)oxy)-9a-ethyl-6,7,8,9,9a,10-hexahydro-1H-pyrido[1′,2′:3,4]imidazo [1,2-c]pyrimidin-1-one], for which the half-inhibitory concentration (IC50) was 23.4 nM.

`O=c1nc(OCc2cc(F)c(Oc3cccc(OC(F)(F)F)c3)c(F)c2)cc2n1C[C@]13CO[C@H](CN21)C3` [Example 145, (3S,11aR)-7-((3,5-difluoro-4-(3-(trifluoromethoxy)phenoxy)benzyl)oxy)-3,4-dihydro-1H,9H,11H-3,11a-methanopyrimido[6′,1′:2,3] imidazo[5,1-c][1,4]oxazin-9-one]: the half-inhibitory concentration (IC50) amounted to 4.3 nM.

`N#Cc1cc(COc2cc3n(c(=O)n2)CC24CC(F)(CN32)C4)ccc1F` [Example 160]: the half-maximal inhibitory concentration (IC50) was found to be 3.8 nM.

For `CCc1c(OCc2cc(F)c(Oc3ccnc(C(F)(F)F)c3)c(F)c2)nc(=O)n2c1N1C[C@@H]3C[C@]1(CO3)C2` [Example 104, (3S,11aR)-7-((3,5-difluoro-4-((2-(trifluoromethyl)pyridin-4-yl)oxy)benzyl)oxy)-6-ethyl-3,4-dihydro-1H,9H,11H-3,11a-methanopyrimido[6′,1′:2,3] imidazo[5,1-c][1,4]oxazin-9-one], the IC50 was determined as 8.6 nM.

As to `CC12CCCCN1c1cc(OCc3cc(F)c(Oc4cnc(C(F)(F)F)nc4)c(F)c3)nc(=O)n1C2` (stereo not shown) [Example 67, 3-((3,5-difluoro-4-((2-(trifluoromethyl)pyrimidin-5-yl)oxy)benzyl)oxy)-9a-methyl-6,7,8,9,9a,10-hexahydro-1H-pyrido[1′,2′:3,4]imidazo [1,2-c]pyrimidin-1-one], the concentration for half-maximal inhibition (IC50) stood at 8.7 nM.

As to `O=c1nc(OCc2ccc(Oc3ccnc(C(F)(F)F)c3)c(F)c2)cc2n1CC13CC(CN4CCOCC4)(CN21)C3` [Example 166, 3-((3-fluoro-4-((2-(trifluoromethyl)pyridin-4-yl)oxy)benzyl)oxy)-7-(morpholinomethyl)-7,8-dihydro-1H,6H,9H-7,8a-methanopyrrolo[1′,2′:3,4] imidazo[1,2-c]pyrimidin-1-one], the IC50 turned out to be 5.8 nM.

For `CC12COCCN1c1cc(OCc3ccc(Oc4ccc(Cl)c(C(F)(F)F)c4)c(C#N)c3)nc(=O)n1C2` (stereo not shown) [Example 84], the half-inhibitory concentration (IC50) worked out at 6.2 nM.

Regarding `O=c1nc(OCc2ccc(Oc3ccnc(C(F)(F)F)c3)c(F)c2)cc2n1CC13CCC(CC1)N23` [Example 149, 3-((3-fluoro-4-((2-(trifluoromethyl)pyridin-4-yl)oxy)benzyl)oxy)-7,8-dihydro-1H,6H,9H-6,8a-ethanopyrrolo[1′,2′:3,4] imidazo[1,2-c]pyrimidin-1-one], the IC50 worked out at 4.1 nM.

For `CC12CCCN1c1cc(OCc3ccc(F)c(F)c3)nc(=O)n1C2` (stereo not shown) [Example 62, 3-((3,4-difluorobenzyl)oxy)-8a-methyl-7,8,8a,9-tetrahydro-1H,6H-pyrrolo[1′,2′:3,4]imidazo [1,2-c]pyrimidin-1-one], the half-inhibitory concentration (IC50) was determined as 13 nM.

With `COc1c(OCc2cc(F)c(Oc3ccnc(C(F)(F)F)c3)c(F)c2)nc(=O)n2c1N1C[C@@H]3C[C@]1(CO3)C2` [Example 106, (3S,11aR)-7-((3,5-difluoro-4-((2-(trifluoromethyl)pyridin-4-yl)oxy)benzyl)oxy)-6-methoxy-3,4-dihydro-1H,9H,11H-3,11a-methanopyrimido[6′,1′:2,3] imidazo[5,1-c][1,4]oxazin-9-one], the IC50 came out at 1 nM.
